Assay [1] relates to K562 human myelogeneous leukaemia cell line. Put plainly: Cytotoxicity/growth inhibition assay (MTT), K562. The class given is cell-based. The settings on record: Homo sapiens, K562. A digest of the protocol:
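Growth inhibition of P388 murine and K562 human leukaemia cells measured by MTT assay.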

For assay [2], the system named is HUVEC. Nature of the assay: Growth inhibition studies using HUVEC. The class given is cell-based, human. The settings on record: Homo sapiens, HUVEC. On the procedure:
The following assays (1–5) were carried out as described in our paper (Woods, et al, British Journal of Cancer, 71, 705–711 (1995)). In addition to the cell lines described in this paper, other established human cell lines (K562, HUVEC, H460, BE, H529, and HT29) were used in the cytotoxicity/growth inhibition assay. • (1) Inhibition of tubulin assembly. The figure quoted is the concentration required to reduce assembly of tubulin by 50%. Tubulin assembly is monitored by light scatter/absorption at 350 nm.
(2) Competition for the colchicine binding site on tubulin. The figure quoted represents the % of ^3H-colchicine bound following co-incubation of test compound and ^3H-cochicine with isolated tubulin. Where ester pro-drugs were used the experiments were carried out in the presence and absence of porcine liver esterase. • (3) Cytotoxicity/growth inhibition assay. This was carried out by the MTT assay. • (4) Permeability (shape-change) assay in endothelial cells. This was carried out using a method based on that of Watts et al. (Anticancer Res., 17, 71–75, (1997)). This involved the diffusion of a fluorescently labelled dextran through a barrier of endothelial cells (HUVEC) grown to confluence on a porous membrane. The effect of agents to alter the shape of these cells results in an increase in the permeability of the cells to the dye. The figure represents the increase in permeability over control cultures when drug is added (30 minutes, 1 mM.). • (5) Experiments to study the anti-vascular effects of these agents were carried out as described previously by our group. (Zhao et al, European Journal of Nuclear Medicine, 26, 231–238 (1999)). The anti-vascular effects of the agents were monitored by either positron emission tomography (PET) or by histologogical examination following treatment of mice bearing T50:80 murine breast tumours, or H460 human lung tumours. • (6) Anti-tumour efficacy of agents was determined in xenografts of H460 human lung cancer. Animals (n=5) were trated either with 5 daily injections and tumour size measured with time following treatment. • (7) The pharmacokinetic profile of agents was determined in mice following injection with drug. Blood was taken at various times following treatment and analysed by HPLC with UV detection. The HPLC conditions were isocratic using a 5 micron C18 BDS column (150×4.6) ad eluting with 75% MeOH in water with a detection wavelength of 290 nm. […] (AND(P)H:quinone oxidoreductace, EC 1.6.99.2). DT-diaphorase is an enzyme over-expressed in a number of human tumours. […] This two-electron reducing enzyme can be used to selectively activate prodrugs within cancers which over-express the enzyme.

Assay [3] concerns tubulin. Nature of the assay: MA IC50 (Tables 12-26, abbreviation not defined). The class given is biochemical.
The test system of assay [4] is tubulin. Nature of the assay: CD IC50 (Tables 12-26, abbreviation not defined). Format: binding.
The subject of assay [5] is K562. Nature of the assay: K562 cell cycle analysis. The settings on record: K562; for % of cells in G0–G1 / % of cells in G2-M / % of cells in S phase: of cells with DNA content = 2 n or >2 n. Format: cell-based, human.
Setting [6] is: Table 22, read-out: MTT (K582) IC50.

Read-outs that look alike come from different tables or passages of the source. Where only a bound is given, the exact number is not on record here.

As usually defined, the IC50 is the concentration that gives 50% inhibition.

Take `COc1ccc(/C=C\c2cc(C)c(C)c(C)c2)cc1` [Compound 117]: the IC50 in assay [1] (MTT, read-out: K562 IC50) was determined as 310 nM. The half-maximal inhibitory concentration (IC50) in assay [2] is > 1000 nM. The IC50 in assay [3] was determined as 650 nM. Also, the IC50 in assay [4] was > 25000 nM. Besides, in assay [5], the “% of cells with DNA content <2 n” value was determined as 15%, the “% of cells in G0–G1” value is listed as 3%, the “% of cells in G2-M” value was determined as 87% and the “% of cells in S phase” value is listed as 10%.
Consider `COc1ccc(/C=C\c2cc(OC)c(OC)c(OC)c2)cc1` [Compound 32], for which the half-inhibitory concentration (IC50) in assay [1] (MTT, read-out: K562 IC50) turned out to be 4 nM; in assay [2], 6 nM; in assay [3] it was 200 nM; in assay [4], 5500 nM.
Regarding `COc1ccc(C=C(C)c2cc(OC)c(OC)c(OC)c2)cc1` [Compound 213], in assay [1] (setting [6]), the IC50 was 100 nM. Inhibition in assay [2] was half-maximal at 350 nM (IC50). Moreover, in assay [3], the half-maximal inhibitory concentration (IC50) was found to be 1300 nM. Moreover, in assay [4], the IC50 is > 25000 nM. Further, in assay [5], the “% of cells with DNA content <2 n” value was determined as 23%, the “% of cells in G0–G1” value turned out to be 5%, the “% of cells in G2-M” value is given as 73% and the “% of cells in S phase” value was determined as 21%.
In the case of `CCC(=Cc1ccc(OC)c(O)c1)c1cc(OC)c(OC)c(OC)c1` [Compound 219], the IC50 in assay [1] (setting [6]) turned out to be 120 nM. In assay [2], this compound registered an IC50 of 220 nM. For the same compound, the IC50 in assay [3] is 130 nM. Besides, the IC50 in assay [4] was > 25000 nM. Besides, in assay [5], the “% of cells with DNA content <2 n” value came out at 24%, the “% of cells in G0–G1” value is recorded as 7%, the “% of cells in G2-M” value came to 74% and the “% of cells in S phase” value stood at 19%.
Consider `COc1ccc(C=C(C)c2cc(OC)c(OC)c(OC)c2)cc1O` [Compound 210], for which the IC50 in assay [1] (MTT, read-out: K562 IC50) was 40 nM; in assay [1] (setting [6]), 40 nM; in assay [2], 90 nM; in assay [3], 130 nM; in assay [4], 6000 nM. In addition, the “% of cells with DNA content <2 n” value in assay [5] is 23%. Also, the “% of cells in G0–G1” value in assay [5] was 5%. In addition, in assay [5], the “% of cells in G2-M” value was 73%. For the same compound, the “% of cells in S phase” value in assay [5] was found to be 22%.
For `COc1ccc(/C=C\c2cc(OC)c(OC)c(OC)c2)cc1Br` [Compound 93], the IC50 in assay [1] (MTT, read-out: K562 IC50) was determined as 1 nM; in assay [2], 67 nM; in assay [3], 400 nM; in assay [4] it was 10000 nM.
Turning to `COc1ccc(/C=C\c2cc(C)c(C)c(C)c2)cc1F` [Compound 120], the IC50 was 140 nM in assay [1] (MTT, read-out: K562 IC50); 460 nM in assay [2]; 700 nM in assay [3]; 10000 nM in assay [4]. The “% of cells with DNA content <2 n” value in assay [5] stood at 23%. The “% of cells in G0–G1” value in assay [5] was 6%. The “% of cells in G2-M” value in assay [5] was 77%. Moreover, the “% of cells in S phase” value in assay [5] worked out at 17%.
As for `CCOc1cc(C=Cc2ccc(OC)c(O)c2)cc(OCC)c1OCC` [Compound 253], the IC50 was 18 nM in assay [1] (MTT, read-out: K562 IC50); 50 nM in assay [2]; 500 nM in assay [3]; 15500 nM in assay [4]. Besides, in assay [5], the “% of cells with DNA content <2 n” value is given as 4%. Moreover, the “% of cells in G0–G1” value in assay [5] is recorded as 3%. In addition, the “% of cells in G2-M” value in assay [5] amounted to 92%. Moreover, the “% of cells in S phase” value in assay [5] amounted to 6%.
Take `CCOc1cc(C=Cc2ccc(OC)c(F)c2)cc(OCC)c1OCC` [Compound 251]: the IC50 in assay [1] (MTT, read-out: K562 IC50) came out at 44 nM. It took 190 nM to reach half-maximal inhibition in assay [2] (IC50). In assay [3], this compound registered an IC50 of 1250 nM. Moreover, the concentration for half-maximal inhibition (IC50) in assay [4] is > 25000 nM. For the same compound, in assay [5], the “% of cells with DNA content <2 n” value is recorded as 24%, the “% of cells in G0–G1” value amounted to 7%, the “% of cells in G2-M” value turned out to be 75% and the “% of cells in S phase” value is 18%.
With `COc1ccc(/C=C\c2cc(OC)c(OC)c(OC)c2)cc1F` [Compound 90], the IC50 in assay [1] (MTT, read-out: K562 IC50) is 10 nM. The compound further displayed a concentration for half-maximal inhibition (IC50) in assay [2] of 4 nM. The IC50 in assay [3] stood at 85 nM. In assay [4], this compound registered a 50% inhibitory concentration (IC50) of 2800 nM. Besides, in assay [5], the “% of cells with DNA content <2 n” value was found to be 16%, the “% of cells in G0–G1” value was 5%, the “% of cells in G2-M” value came out at 79% and the “% of cells in S phase” value was found to be 16%.

Source of the values: US7220784B2, “Substituted stilbenes and their reactions” (priority 2000, dated 2007).
